Test results published in patent US20260265238A1, “COMPOUNDS AND PHARMACEUTICAL COMPOSITIONS THAT DEGRADE SWI/SNF-RELATED MATRIX-ASSOCIATED ACTIN-DEPENDENT REGULATOR OF CHROMATIN SUBFAMILY A” (Plexium, Inc., priority 2023, published 2026).

What was measured:
[1] = target: T1, SMARCA4-HiBiT HeLa cells (protein which is expressed from the SMARCA4 gene) (Homo sapiens, UniProt P51532); test: SMARCA4 degradation assay (HiBiT-fusion HeLa cell line, 24 h, luminescence); format: cell-based
T1 construct: protein which is expressed from the SMARCA2 and SMARCA4 genes; host or cells: HeLa (SMARCA4-HiBiT engineered line)
In short: (§1)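 In this 24-hour cellular degradation readout, HiBiT-tagged HeLa lines received compound at up to typically 10 μM down to 300 pM in 10 points. After lysis with LgBiT and substrate, luminescence signals were used to build dose-response curves for DC50.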

[2] = target: T2, SMARCA2-HiBiT HeLa cells (protein which is expressed from the SMARCA2 gene) (Homo sapiens, UniProt P51531); test: SMARCA2 degradation assay (HiBiT-fusion HeLa cell line, 24 h, luminescence); format: cell-based
T2 construct: protein which is expressed from the SMARCA2 and SMARCA4 genes; host or cells: HeLa (SMARCA2-HiBiT engineered line)
In short: as §1

T1 sequence (P51532 whole entry, the tested form may be a part): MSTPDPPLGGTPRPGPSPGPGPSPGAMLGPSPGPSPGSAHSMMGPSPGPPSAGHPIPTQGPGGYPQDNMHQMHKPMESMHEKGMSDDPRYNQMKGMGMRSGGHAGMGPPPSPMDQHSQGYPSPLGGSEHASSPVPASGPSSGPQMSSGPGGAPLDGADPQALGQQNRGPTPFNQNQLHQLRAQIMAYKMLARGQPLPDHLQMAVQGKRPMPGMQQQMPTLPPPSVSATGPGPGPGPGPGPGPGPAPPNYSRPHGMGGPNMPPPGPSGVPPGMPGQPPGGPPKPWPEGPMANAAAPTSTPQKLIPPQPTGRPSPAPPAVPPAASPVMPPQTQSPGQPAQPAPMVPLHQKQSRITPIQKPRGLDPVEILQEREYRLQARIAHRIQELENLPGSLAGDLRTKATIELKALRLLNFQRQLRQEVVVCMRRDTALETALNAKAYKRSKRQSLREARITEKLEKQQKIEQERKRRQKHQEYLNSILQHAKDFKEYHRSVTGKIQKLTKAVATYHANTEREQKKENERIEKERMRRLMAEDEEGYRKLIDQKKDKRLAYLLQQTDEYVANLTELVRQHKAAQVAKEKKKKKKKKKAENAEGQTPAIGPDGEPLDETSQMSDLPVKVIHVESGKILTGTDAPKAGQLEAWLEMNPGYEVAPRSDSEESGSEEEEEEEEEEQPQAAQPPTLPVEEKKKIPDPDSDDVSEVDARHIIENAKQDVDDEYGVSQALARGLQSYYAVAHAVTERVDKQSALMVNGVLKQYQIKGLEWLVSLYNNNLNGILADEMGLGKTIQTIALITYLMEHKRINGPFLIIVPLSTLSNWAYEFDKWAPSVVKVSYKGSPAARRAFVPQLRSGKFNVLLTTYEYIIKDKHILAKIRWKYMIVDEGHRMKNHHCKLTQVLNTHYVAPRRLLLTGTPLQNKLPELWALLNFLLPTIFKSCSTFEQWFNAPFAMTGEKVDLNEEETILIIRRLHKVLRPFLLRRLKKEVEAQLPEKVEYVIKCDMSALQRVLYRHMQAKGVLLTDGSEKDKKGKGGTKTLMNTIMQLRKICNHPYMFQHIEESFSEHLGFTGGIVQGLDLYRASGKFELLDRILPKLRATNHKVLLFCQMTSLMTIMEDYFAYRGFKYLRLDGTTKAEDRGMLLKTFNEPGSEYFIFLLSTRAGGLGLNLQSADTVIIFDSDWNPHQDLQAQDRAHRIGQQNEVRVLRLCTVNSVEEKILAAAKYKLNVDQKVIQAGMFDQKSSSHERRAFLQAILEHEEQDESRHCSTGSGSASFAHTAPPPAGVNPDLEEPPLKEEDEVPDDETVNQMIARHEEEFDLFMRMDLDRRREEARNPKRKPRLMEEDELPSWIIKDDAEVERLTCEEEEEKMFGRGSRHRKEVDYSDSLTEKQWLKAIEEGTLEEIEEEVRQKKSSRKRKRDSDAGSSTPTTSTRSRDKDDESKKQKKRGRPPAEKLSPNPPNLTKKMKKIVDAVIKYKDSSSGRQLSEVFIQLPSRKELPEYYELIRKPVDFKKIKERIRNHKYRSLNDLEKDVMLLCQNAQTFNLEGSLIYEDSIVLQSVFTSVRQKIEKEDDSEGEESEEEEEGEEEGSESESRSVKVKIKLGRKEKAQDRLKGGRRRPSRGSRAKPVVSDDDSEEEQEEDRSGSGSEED
T2 sequence (P51531 whole entry, the tested form may be a part): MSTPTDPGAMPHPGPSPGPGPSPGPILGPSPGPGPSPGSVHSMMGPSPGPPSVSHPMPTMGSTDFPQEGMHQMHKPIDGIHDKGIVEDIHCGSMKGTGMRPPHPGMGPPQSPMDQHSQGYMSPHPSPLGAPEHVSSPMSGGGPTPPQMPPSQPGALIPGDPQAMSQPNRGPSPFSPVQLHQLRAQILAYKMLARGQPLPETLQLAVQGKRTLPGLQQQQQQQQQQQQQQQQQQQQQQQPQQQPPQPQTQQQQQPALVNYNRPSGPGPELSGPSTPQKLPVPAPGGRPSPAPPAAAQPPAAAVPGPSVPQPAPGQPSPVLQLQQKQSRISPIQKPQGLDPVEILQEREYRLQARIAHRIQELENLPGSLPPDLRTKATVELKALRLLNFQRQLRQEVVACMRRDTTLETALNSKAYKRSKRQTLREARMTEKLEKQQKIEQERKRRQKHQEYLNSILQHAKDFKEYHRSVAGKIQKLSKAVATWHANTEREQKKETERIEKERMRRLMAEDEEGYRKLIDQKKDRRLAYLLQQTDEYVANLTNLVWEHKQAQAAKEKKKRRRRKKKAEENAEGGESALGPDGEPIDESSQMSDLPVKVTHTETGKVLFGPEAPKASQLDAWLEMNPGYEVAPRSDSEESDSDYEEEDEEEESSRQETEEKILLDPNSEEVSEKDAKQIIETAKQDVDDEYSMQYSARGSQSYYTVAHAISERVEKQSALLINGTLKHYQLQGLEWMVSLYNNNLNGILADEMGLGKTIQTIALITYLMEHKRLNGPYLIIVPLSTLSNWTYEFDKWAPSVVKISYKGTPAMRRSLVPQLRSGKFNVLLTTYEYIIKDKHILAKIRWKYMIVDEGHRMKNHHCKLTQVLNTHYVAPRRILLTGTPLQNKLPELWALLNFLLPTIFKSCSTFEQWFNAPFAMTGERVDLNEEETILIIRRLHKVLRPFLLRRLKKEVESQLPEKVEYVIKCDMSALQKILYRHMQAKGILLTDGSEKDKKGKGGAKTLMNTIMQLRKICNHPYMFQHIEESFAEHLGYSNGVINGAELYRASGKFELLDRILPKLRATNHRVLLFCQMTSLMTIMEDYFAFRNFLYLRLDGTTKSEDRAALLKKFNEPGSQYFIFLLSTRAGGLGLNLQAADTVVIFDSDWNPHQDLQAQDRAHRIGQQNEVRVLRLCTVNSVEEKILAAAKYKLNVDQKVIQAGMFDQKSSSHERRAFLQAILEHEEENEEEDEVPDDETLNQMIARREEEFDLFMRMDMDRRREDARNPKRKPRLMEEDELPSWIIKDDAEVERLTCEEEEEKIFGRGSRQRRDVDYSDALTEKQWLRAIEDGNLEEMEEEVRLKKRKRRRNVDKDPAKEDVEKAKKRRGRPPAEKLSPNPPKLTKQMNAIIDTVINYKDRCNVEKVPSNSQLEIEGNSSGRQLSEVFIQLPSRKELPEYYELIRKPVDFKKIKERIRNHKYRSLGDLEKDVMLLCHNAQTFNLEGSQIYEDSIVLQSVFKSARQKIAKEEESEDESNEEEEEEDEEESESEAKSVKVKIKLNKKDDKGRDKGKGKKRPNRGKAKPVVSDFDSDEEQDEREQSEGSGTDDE

Compound | DC50 [1] [nM] | inhibition at 1 µM ([1]; 1 μM) [%] | DC50 [2] [nM] | SMARCA2 % Degradation @ 1 μM ([2]; 1 μM) | inhibition at 1 µM ([1]; @ 1 μM) [%] | SMARCA2 % Degradation @ 1 μM ([2]; @ 1 μM)
C[C@@H]1CCN(c2cc(-c3ccccc3O)nnc2N)CCN1c1ccnc(C#CCn2cncn2)c1 [Compound P-424, 0-{5-[(R)-5-methyl-4-{2-[3-(1H-1,2,4-triazol-1-yl)-1-propynyl]-4-pyridyl}-1,4-diazepan-1-yl]-6-amino-3-pyridaziny1} phenol] | 50 to 500 | 30 to 70 | 50 to 500 | +++ (+++=>70%) | – | –
CC1(NCC#Cc2nccc(N3CCCN(c4cc(-c5ccccc5O)nnc4N)CC3)n2)COC1 [Compound P-278, 0-[6-amino-5-(4-{2-[3-(3-methyl-3-oxetanylamino)-1-propynyl]-4-pyrimidinyl}-1,4-diazepan-1-yl)-3-pyridazinyl]phenol] | 50 to 500 | – | 50 to 500 | – | 30 to 70 | ++ (++=30-70%)
Nc1nnc(-c2ccccc2O)cc1N1CCCN(c2ccnc(C#CCN3CCS(=O)(=O)CC3)n2)CC1 [Compound P-137, 4-(3-(4-(4-(3-amino-6-(2-hydroxyphenyl)pyridazin-4-yl)-1,4-diazepan-1-yl)pyrimidin-2-yl)prop-2-yn-1-yl)thiomorpholine 1,1-dioxide] | 500 to 5000 | – | 500 to 5000 | – | 30 to 70 | ++ (++=30-70%)
Nc1nnc(-c2ccccc2O)cc1N1C2CCC1CN(c1ccnc(C#CCCNC(=O)c3cc4ncccn4n3)n1)C2 [Compound P-22, N-(4-(4-(8-(3-amino-6-(2-hydroxyphenyl)pyridazin-4-yl)-3,8-diazabicyclo[3.2.1]octan-3-yl)pyrimidin-2-yl)but-3-yn-1-yl)pyrazolo[1,5-a]pyrimidinc-2-carboxamide] | 500 to 5000 | – | 500 to 5000 | – | 30 to 70 | ++ (++=30-70%)
Nc1nnc(-c2ccccc2O)cc1N1CCCN(c2ccnc(C#CCn3cncn3)n2)CC1 [Compound P-148, 2-(5-(4-(2-(3-(1H-1,2,4-triazol-1-yl)prop-1-yn-1-yl)pyrimidin-4-yl)-1,4-diazepan-1-yl)-6-aminopyridazin-3-yl)phenol] | 50 to 500 | – | 50 to 500 | – | 30 to 70 | +++ (+++=>70%)
Nc1nnc(-c2ccccc2O)cc1N1CCN(c2ccnc(C#CCNC(=O)c3cc4n(n3)CCCO4)n2)CC1 [Compound P-57, N-(3-(4-(4-(3-amino-6-(2-hydroxyphenyl)pyridazin-4-yl)piperazin-1-y1)pyrimidin-2-yl)prop-2-yn-1-yl)-6,7-dihydro-5H-pyrazolo[5,1-b][1,3]oxazine-2-carboxamide] | < 50 | – | 50 to 500 | – | 30 to 70 | ++ (++=30-70%)
Nc1nnc(-c2ccccc2O)cc1OC1CC2CN(c3ccnc(C#CCn4ccnc4)n3)CC2C1 (stereo not shown) [Compound P-219, o-[6-amino-5-(3-{2-[3-(1-imidazolyl)-1-propynyl]-4-pyrimidinyl}-3-azabicyclo[3.3.0]oct-7-yloxy)-3-pyridazinyl]phenol] | 50 to 500 | – | 50 to 500 | – | > 70 | +++ (+++=>70%)
CC(C)c1cc(C(C)C)n(CC#Cc2nccc(N3CCCN(c4cc(-c5ccccc5O)nnc4N)CC3)n2)n1 [Compound P-104, 2-(6-amino-5-(4-(2-(3-(3,5-diisopropyl-1H-pyrazol-1-yl)prop-1-yn-1-yl)pyrimidin-4-yl)-1,4-diazepan-1-yl)pyridazin-3-yl)phenol] | 500 to 5000 | – | 50 to 500 | – | 30 to 70 | +++ (+++=>70%)
Nc1nnc(-c2ccccc2O)cc1N1CCN(c2ccnc(C#CCNC(=O)c3nc4ccccc4s3)n2)CC1 [Compound P-118, N-(3-(4-(4-(3-amino-6-(2-hydroxyphenyl)pyridazin-4-yl)piperazin-1-yl)pyrimidin-2-yl)prop-2-yn-1-yl)benzo[d]thiazole-2-carboxamide] | 50 to 500 | – | 50 to 500 | – | 30 to 70 | ++ (++=30-70%)
Nc1nnc(-c2ccccc2O)cc1N1CC2CC(C1)N2c1ccnc(C#CCN2CC(F)(F)C2)n1 [Compound P-204, o-[6-amino-5-(6-{2-[3-(3,3-difluoro-1-azetidinyl)-1-propynyl]-4-pyrimidinyl}-3,6-diazabicyclo[3.1.1]hept-3-yl)-3-pyridazinyl]phenol] | 500 to 5000 | – | 50 to 500 | – | 30 to 70 | ++ (++=30-70%)
Nc1nnc(-c2ccccc2O)cc1N1C2CCC1CN(c1ccnc(C#CCNC(=O)c3cc4ncccn4n3)n1)C2 [Compound P-78, N-(3-(4-(8-(3-amino-6-(2-hydroxyphenyl)pyridazin-4-yl)-3,8-diazabicyclo[3.2.1]octan-3-yl)pyrimidin-2-yl)prop-y2-yn-1-l)pyrazolo[1,5-a]pyrimidine-2-carboxamide] | 50 to 500 | – | 50 to 500 | – | 30 to 70 | +++ (+++=>70%)
Nc1nnc(-c2ccccc2O)cc1N1CCCN(c2ccnc(C#CCn3ncc4ccncc43)n2)CC1 [Compound P-116, 2-(5-(4-(2-(3-(1H-pyrazolo[3,4-c]pyridin-1-yl)prop-1-yn-1-yl)pyrimidin-4-yl)-1,4-diazepan-1-yl)-6-aminopyridazin-3-yl)phenol] | 50 to 500 | – | 50 to 500 | – | 30 to 70 | +++ (+++=>70%)
NC/C=C/c1nccc(N2CCCN(c3cc(-c4ccccc4O)nnc3N)CC2)n1 [Compound P-113, (E)-2-(6-amino-5-(4-(2-(3-aminoprop-1-en-1-yl)pyrimidin-4-yl)-1,4-diazepan-1-yl)pyridazin-3-yl)phenol] | 500 to 5000 | – | 50 to 500 | – | < 30 | ++ (++=30-70%)
C[C@@H]1CCN(c2cc(-c3ccccc3O)nnc2N)CCN1c1ccnc(C#CCN2CCCCC2)c1 [Compound P-425, 0-(5-{(R)-5-methyl-4-[2-(3-piperidino-1-propynyl)-4-pyridyl]-1,4-diazepan-1-yl}-6-amino-3-pyridazinyl)phenol] | < 50 | 30 to 70 | < 50 | ++ (++=30-70%) | – | –
Nc1nnc(-c2ccccc2O)cc1N1CCN(c2ccnc(C#CCNC(=O)c3cc4ccccc4o3)n2)CC1 [Compound P-75, N-(3-(4-(4-(3-amino-6-(2-hydroxyphenyl)pyridazin-4-yl)piperazin-1-yl)pyrimidin-2-yl)prop-2-yn-1-yl)benzofuran-2-carboxamide] | < 50 | – | 50 to 500 | – | 30 to 70 | ++ (++=30-70%)

More lines, now with the values ahead:

DC50 [1] [nM] | inhibition at 1 µM ([1]; 1 μM) [%] | DC50 [2] [nM] | SMARCA2 % Degradation @ 1 μM ([2]; 1 μM) | inhibition at 1 µM ([1]; @ 1 μM) [%] | SMARCA2 % Degradation @ 1 μM ([2]; @ 1 μM) | Compound
50 to 500 | – | 50 to 500 | – | > 70 | +++ (+++=>70%) | Nc1nnc(-c2ccccc2O)cc1N1CCCN(c2ccnc(C#CCNC(=O)OCC(F)(F)F)n2)CC1 [Compound P-339, 6-(o-hydroxyphenyl)-4-(4-{2-[3-(2,2,2-trifluoroethoxycarbonylamino)-1-propynyl]-4-pyrimidinyl}-1,4-diazepan-1-yl)-3-pyridazinamine]
50 to 500 | – | 50 to 500 | – | < 30 | ++ (++=30-70%) | C[C@H]1CCN(c2cc(-c3ccccc3O)nnc2N)CCN1c1ccnc(C#CCN(C)CC(F)(F)F)n1 [Compound P-217, o-{5-[(S)-4-(2-{3-[N-methyl(2,2,2-trifluoroethyl)amino]-1-propynyl}-4-pyrimidinyl)-5-methyl-1,4-diazepan-1-yl]-6-amino-3-pyridaziny1}phenol]
50 to 500 | – | 50 to 500 | – | 30 to 70 | +++ (+++=>70%) | C[C@@H]1CCN(c2cc(-c3ccccc3O)nnc2N)CCN1c1ccnc(C#CCNC(=O)OC(C)(C)C)n1 [Compound P-238]
50 to 500 | – | 50 to 500 | – | 30 to 70 | +++ (+++=>70%) | C[C@@H]1CCN(c2cc(-c3ccccc3O)nnc2N)CCN1c1ccnc(C#CCn2ccnc2)n1 [Compound P-298, 0-{5-[(R)-4-{2-[3-(1-imidazolyl)-1-propynyl]-4-pyrimidinyl}-5-mcthyl-1,4-diazepan-1-yl]-6-amino-3-pyridazinyl}phenol]
< 50 | 30 to 70 | < 50 | +++ (+++=>70%) | – | – | CC(C)OCC#Cc1cc(N2CCN(c3cc(-c4ccccc4O)nnc3N)CC[C@H]2C)ccn1 [Compound P-383, 0-(5-{(R)-4-[2-(3-isopropoxy-1-propynyl)-4-pyridyl]-5-methyl-1,4-diazepan-1-yl}-6-amino-3-pyridazinyl)phenol]
< 50 | – | 50 to 500 | – | 30 to 70 | ++ (++=30-70%) | CN(C)CC#Cc1nccc(N2C[C@@H]3CN(c4cc(-c5ccccc5O)nnc4N)C[C@@H]3C2)n1 [Compound P-181, o-{5-[(1R,5S)-7-{2-[3-(dimethylamino)-1-propynyl]-4-pyrimidinyl}-3,7-diazabicyclo[3.3.0]oct-3-yl]-6-amino-3-pyridazinyl} phenol]
50 to 500 | – | 50 to 500 | – | < 30 | ++ (++=30-70%) | C[C@@H]1CCN(c2cc(-c3ccccc3O)nnc2N)CCN1c1ccnc(C#CCn2cncn2)n1 [Compound P-333, 0-{5-[(R)-5-methyl-4-{2-[3-(1H-1,2,4-triazol-1-yl)-1-propynyl]-4-pyrimidinyl}-1,4-diazepan-1-y1]-6-amino-3-pyridazinyl} phenol]
